According to paper PMC5312529 (BMC Cancer, 2017):
Where two headings read alike, the source gives them in different places. Marks after values point to notes of the source that are not given here. Values belong to the compound of their own block, whether it stands above or below them.

Experiments:
[1] = tested on: patients with locally advanced or metastatic pancreatic cancer; test: Patient disposition and treatment exposure; format: in vivo
Description: (§1) Prior to enrollment, the study protocol, patient informed consent, and any other written study documentation were approved by an ethics committee. This trial was conducted in accordance with the Declaration of Helsinki and the Good Clinical Practice Guidelines of the International Conference on Harmonization. Phase II of this open-label, multicenter, randomized, 2-arm, Phase I/II trial was conducted in patients with locally advanced or metastatic pancreatic cancer. […] Patients continued on treatment until disease progression, unacceptable toxicity, or patient unwillingness to participate.
The first patient was enrolled on 26 February 2009.

[2] = tested on: patients with locally advanced or metastatic pancreatic cancer; test: Safety: treatment-emergent adverse events graded by CTCAE v 3.0; format: in vivo, human
Description: as §1
All patients who received at least one dose of study drug were evaluated for safety and toxicity. AE severity was graded using the Common Terminology Criteria for AEs (CTCAE) v 3.0.

[3] = tested on: Stage II-IV locally advanced or metastatic pancreatic cancer; test: Phase II randomized trial: overall survival, PFS, response (RECIST v 1.1); format: in vivo, human
Excerpt: Adult patients who had given informed consent had adequate hematological, liver, and renal functions; histological or cytological evidence of a diagnosis of Stage II or III adenocarcinoma of the pancreas not amenable to resection with curative intent or Stage IV disease; and an Eastern Cooperative Oncology Group performance status (ECOG PS) 0–2. Patients with previous radical surgery for pancreatic cancer were eligible after progression was documented.
as §1
In addition to the Bayesian model, frequentist analysis of OS was also performed as a sensitivity analysis. The definition of secondary efficacy variables was consistent with standard conventions per RECIST (v 1.1).

[4] = tested on: metastatic pancreatic adenocarcinoma; set-up: method as in PMID 21969517; settings: MPACT; cited from earlier work
genomic DNA = test: Nucleoside analog DNA incorporation assay (gemcitabine/dFdC in genomic DNA); format: in vivo, human
[5] = tested on: carbohydrate antigen 19–9 (CA19-9); test: CA19-9 biomarker response; format: in vivo, human; settings: patients with baseline CA19-9 > upper limit of normal
Excerpt: Exploratory analyses included: change from baseline in tumor size and carbohydrate antigen 19–9 (CA19-9) levels, and changes in QTcF from electrocardiograms (ECG) obtained at baseline and after LY2603618 administration on days 2 and 16 during cycle one. […] A sample for CA–19–9 analysis was collected at the start of each cycle.

[6] = tested on: Fridericia’s heart rate-corrected QT interval (QTcF); test: Exploratory QTcF assessment from electrocardiograms; format: in vivo, human; settings: ECG at baseline and after LY2603618 on days 2 and 16 of cycle one
Excerpt: Exploratory analyses included: change from baseline in tumor size and carbohydrate antigen 19–9 (CA19-9) levels, and changes in QTcF from electrocardiograms (ECG) obtained at baseline and after LY2603618 administration on days 2 and 16 during cycle one.

[7] = LY2603618 plasma pharmacokinetics, noncompartmental analysis; format: in vivo, human; settings: for Cmax / AUC(0-inf) / AUC(0-t) / clearance / Vd / half-life: 230 mg; for Cmax: read-out: Cmax, Geometric Mean (CV%); for AUC(0-inf): read-out: AUC(0-∞), Geometric Mean (CV%); for AUC(0-t): read-out: AUC(0–24), Geometric Mean (CV%); for clearance: read-out: CL, Geometric Mean (CV%) (converted); for Vd: read-out: Vss, Geometric Mean (CV%); for half-life: read-out: t1/2, Geometric Mean (CV%) (converted)
Description: LY2603618 concentrations were quantified using a validated high-pressure liquid chromatography/mass spectrometry/mass spectrometry method. Whole blood samples were collected following the LY2603618 infusion on days 2 and 16 of cycle 1 before the start (<10 min) of infusion; immediately prior to the end of infusion (<5 min); and at 1, 3, and 24 h after the end of infusion. LY2603618 PK parameters were computed from the plasma concentration versus time data by standard noncompartmental analyses (Phoenix WinNonlin version 6.3, Pharsight, A Certara Company®; Princeton, NJ, USA).

[8] = tested on: patients with solid tumors; set-up: method as in PMID 27598338; settings: in combination with gemcitabine; cited from earlier work
HT-29 xenograft models = tested on: HT-29 xenograft models; set-up: method as in data on file; settings: nonclinical HT-29 xenograft models; ref data on file; cited from earlier work
[9] = tested on: patients with advanced solid tumors; settings: cited from earlier work
[10] = study drug-related TEAE, any grade
[11] = 230 mg LY2603618, Cycle 1 Day 2
[12] = 230 mg LY2603618, Cycle 1 Day 16
[13] = 230 mg LY2603618, days 2 and 16 of cycle 1
[14] = human, plasma, intravenous, 230 mg LY2603618, Cycle 1 Day 2
[15] = human, plasma, intravenous, 230 mg LY2603618, Cycle 1 Day 16

SMILES: Nc1ccn([C@@H]2O[C@H](CO)[C@@H](O)C2(F)F)c(=O)n1 [Gemcitabine, gemcitabine]
Study discontinuation due to death ([1]; ITT population): 2.9%
Study discontinuation due to progressive disease ([1]; ITT population): 61.8%
Study discontinuation due to AE ([1]; human, in vivo): 17.6%
Events leading to discontinuation that were possibly related to treatment ([2]; among patients who discontinued due to AEs): four
Study drug-related treatment-emergent AEs (TEAEs), patients ([2]; any grade): 91.2%
Patients with ≥1 TEAE (study drug-related) ([2]; any grade, safety population): 31 (91.2) n (%)
Patients who discontinued the study due to AEs ([2]; in vivo): 6 n
Serious adverse events (SAE) related to study treatment, patients ([2]; in vivo): 23.5%
Alopecia [2, 10]: 4 (11.8) n (%)
Anemia [2, 10]: 9 (26.5) n (%)
Asthenia [2, 10]: 5 (14.7) n (%)
Constipation [2, 10]: 3 (8.8) n (%)
Decreased appetite [2, 10]: 3 (8.8) n (%)
Diarrhea [2, 10]: 3 (8.8) n (%)
Fatigue [2, 10]: 10 (29.4) n (%)
Leukopenia [2, 10]: 5 (14.7) n (%)
Nausea [2, 10]: 8 (23.5) n (%)
Neutropenia [2, 10]: 9 (26.5) n (%)
Oedema peripheral [2, 10]: 2 (5.9) n (%)
Patients who experienced anemia [2, 10]: 26.5%
Pyrexia [2, 10]: 5 (14.7) n (%)
Stomatitis [2, 10]: 1 (2.9) n (%)
Thrombocytopenia [2, 10]: 14 (41.2) n (%)
Vomiting [2, 10]: 3 (8.8) n (%)
Decreased hemoglobin ([2]; study drug-related, Grade 3): 4 (11.8) n (%)
Decreased leukocytes ([2]; study drug-related, Grade 3): 1 (2.9) n (%)
Decreased platelets ([2]; study drug-related, Grade 3): 3 (8.8) n (%)
Dehydration ([2]; study drug-related, Grade 3): 2 (5.9) n (%)
Fatigue ([2]; study drug-related, Grade 3): 3 (8.8) n (%)
Hyponatremia ([2]; study drug-related, Grade 3): 2 (5.9) n (%)
Patients with ≥1 TEAE ([2]; study drug-related, Grade 3): 19 (55.9) n (%)
Thrombotic microangiopathy ([2]; study drug-related, Grade 3): 2 (5.9) n (%)
Decreased hemoglobin ([2]; study drug-related, Grade 4): 0 n (%)
Decreased leukocytes ([2]; study drug-related, Grade 4): 1 (2.9) n (%)
Decreased platelets ([2]; study drug-related, Grade 4): 1 (2.9) n (%)
Dehydration ([2]; study drug-related, Grade 4): 0 n (%)
Fatigue ([2]; study drug-related, Grade 4): 0 n (%)
Hyponatremia ([2]; study drug-related, Grade 4): 0 n (%)
Patients with ≥1 TEAE ([2]; study drug-related, Grade 4): 3 (8.8) n (%)
Thrombotic microangiopathy ([2]; study drug-related, Grade 4): 0 n (%)
Median overall survival (OS) ([3]; ITT population, frequentist analysis): 8.3 months
Best Overall Response: CR ([3]; in vivo): 0 n (%; 95% CI)
Best Overall Response: PR ([3]; in vivo): 3 (8.8%; 1.9–23.7) n (%; 95% CI)
Best Overall Response: SD ([3]; in vivo): 19 (55.9%; 37.9–72.8) n (%; 95% CI)
Clinical Benefit Rate ([3]; in vivo): 22 (64.7%; 46.5–80.3) n (%; 95% CI)
Clinical benefit rate ([3]; in vivo): 64.7%
Duration of response, Median (range) ([3]; in vivo): 6.0 (3.7–6.8) mos.
Percentage of patients with partial response (PR) ([3]; in vivo): 8.8%
Median OS [4]: 6.7 months
dFdC levels incorporated into DNA over the treatment cycle (genomic DNA; following gemcitabine administration): declining to almost baseline by the end of each treatment cycle
Patients with >50% reduction from baseline in CA19-9 levels [5]: 64%

AUC(tlast-∞), Geometric Mean (CV%) [7, 11]: 14.3 (131) ^d %
Cav,24, Geometric Mean (CV%) [7, 11]: 966 (68) ^d ng/mL
AUC(tlast-∞), Geometric Mean (CV%) [7, 12]: 12.0 (152) ^e %
Cav,24, Geometric Mean (CV%) [7, 12]: 987 (60) ^e ng/mL
tmax, Median (range) [7, 12]: 1.00 (0.88–1.83) h
Individual PK profiles above the target for AUC(0-∞) (≥21,000 ng hr/mL) [7, 13]: 73%
Individual PK profiles above the target for Cmax (≥2000 ng/mL) [7, 13]: 87%
Cmax ([7]; human, plasma, intravenous, 230 mg LY2603618 1-h infusion ~24 h after gemcitabine, Cycle 1 Day 2): 3170 ng/mL
AUC(0-inf) [7, 14]: 29400 ng·h/mL
AUC(0-t) [7, 14]: 23200 ng·h/mL
clearance [7, 14]: 130 mL/min
Vd [7, 14]: 104 L
half-life [7, 14]: 9.67 h
AUC(0-inf) [7, 15]: 29100 ng·h/mL
AUC(0-t) [7, 15]: 23700 ng·h/mL
clearance [7, 15]: 131 mL/min
Cmax [7, 15]: 3410 ng/mL
Vd [7, 15]: 95.1 L
half-life [7, 15]: 8.86 h
Tmax ([7]; human, plasma, intravenous, 230 mg LY2603618, Cycle 1 Day 2, read-out: tmax, Median (range)): 1 h
SMILES: Cc1cnc(NC(=O)Nc2cc(Br)c(C)cc2OC[C@@H]2CNCCO2)cn1 [LY2603618]
Effect of the addition of LY2603618 on the safety profile of gemcitabine ([2]; in vivo): did not significantly change the safety profile of gemcitabine
Patients with change in QTcF from baseline >60 msec [6]: no patients
Patients with change in QTcF from baseline between 30 and 60 msec [6]: Five
Trends in ECG parameter changes (time-point QTcF assessment) [6]: no clinically significant trends
Relation of increases in dFdC incorporation into DNA to LY2603618 dose (genomic DNA; in vivo): did not correspond to increasing doses of LY2603618
Recommended Phase II dose [8]: 230 mg
Plasma systemic exposure target AUC(0-∞) that correlates with maximal pharmacodynamic effect (HT-29 xenograft models): ≥ 21,000 ng hr/mL
Plasma systemic exposure target Cmax that correlates with maximal pharmacodynamic effect (HT-29 xenograft models): ≥ 2000 ng/mL

SMILES: NC(=O)Nc1cc(-c2cccc(F)c2)sc1C(=O)N[C@H]1CCCNC1 [AZD7762]
Toxicity observed in Phase 1 study [9]: unpredictable cardiac toxicity was observed
